Experimental data taken from ChEMBL document CHEMBL5728169, “Compounds and methods for inhibiting CYP26 enzymes” (2020).

Key:
Cytochrome P450 26A1 = target: T1, Cytochrome P450 26A1 (Homo sapiens, UniProt O43174); test: (§1) Cell-Based Inhibitor Assay: CYP26A1 or CYP26B1 stably transfected HeLa cells were maintained in Minimum Essential Medium (MEM) containing 10% fetal bovine serum (FBS) and 100 μg/mL hygromycin. Exponentially growing cells were harvested by incubation in trypsin. Cells were then collected and re-plated in 48-well culture plates at 5×10^5 cells in 0.2 mL of culture medium containing 0.05 μCi [3H]-RA in the presence or absence of increasing concentrations of a test compound. The test compounds were diluted in dimethyl sulfoxide (DMSO) and then added in duplicate to wells at 0.01, 0.1, 1, 10 and 100 μM final concentration. […] Cells were incubated for 3 hours at 37° C. Retinoids were then extracted using the procedure of Bligh, et al., (1959), Canadian Journal of Biochemistry 37, 911-917, which was modified by using dichloromethane instead of chloroform. Each sample's water soluble radioactivity level was quantified using a β-scintillation counter (using Ecolume scintillation fluid, available from MP Biomedicals of Solon, Ohio, USA).
T1 sequence (O43174 whole entry): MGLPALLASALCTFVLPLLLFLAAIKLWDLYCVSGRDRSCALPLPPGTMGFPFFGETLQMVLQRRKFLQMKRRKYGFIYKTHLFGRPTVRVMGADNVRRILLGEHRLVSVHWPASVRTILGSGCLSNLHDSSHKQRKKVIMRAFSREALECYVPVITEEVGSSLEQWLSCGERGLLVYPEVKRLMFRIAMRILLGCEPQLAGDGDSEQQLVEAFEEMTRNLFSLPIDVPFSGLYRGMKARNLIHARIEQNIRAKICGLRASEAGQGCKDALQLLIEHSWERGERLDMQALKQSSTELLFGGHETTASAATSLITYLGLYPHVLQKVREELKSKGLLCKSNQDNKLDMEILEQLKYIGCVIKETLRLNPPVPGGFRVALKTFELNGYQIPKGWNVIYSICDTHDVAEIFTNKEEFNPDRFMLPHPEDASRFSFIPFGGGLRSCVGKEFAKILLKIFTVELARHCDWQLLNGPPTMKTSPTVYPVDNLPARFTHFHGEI

Cytochrome P450 26B1 = target: T2, Cytochrome P450 26B1 (Homo sapiens, UniProt Q9NR63); test: as §1
T2 sequence (Q9NR63 whole entry): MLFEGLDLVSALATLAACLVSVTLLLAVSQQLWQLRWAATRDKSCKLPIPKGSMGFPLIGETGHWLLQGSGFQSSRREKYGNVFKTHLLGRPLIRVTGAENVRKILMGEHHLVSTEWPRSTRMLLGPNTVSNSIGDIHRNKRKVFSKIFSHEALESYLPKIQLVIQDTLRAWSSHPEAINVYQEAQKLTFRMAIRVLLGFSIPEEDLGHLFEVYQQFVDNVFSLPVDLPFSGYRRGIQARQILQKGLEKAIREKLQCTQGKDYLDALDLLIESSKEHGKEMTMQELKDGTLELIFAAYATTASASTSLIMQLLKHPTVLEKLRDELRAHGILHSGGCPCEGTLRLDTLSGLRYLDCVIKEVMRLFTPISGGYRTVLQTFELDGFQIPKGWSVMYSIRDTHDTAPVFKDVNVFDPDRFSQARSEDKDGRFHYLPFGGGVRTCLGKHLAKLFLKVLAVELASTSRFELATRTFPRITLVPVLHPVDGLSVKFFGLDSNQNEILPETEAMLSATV

Row | IC50 (Cytochrome P450 26A1) | IC50 (Cytochrome P450 26B1) | SMILES
1 | 1.9 µM | 21.8 µM | Cc1ccc(NS(=O)(=O)c2cc(C)c3c(c2)C(C)(C)CC(C)(C)O3)cc1
2 | 0.47 µM | > 1000 µM | Cc1cc2c(cc1S(=O)(=O)Nc1ccc(CC(=O)O)cc1)C(C)(C)CCC2(C)C
